Experimental data as given in patent US20110098227A1, “Soluble notch-based substrates for gamma secretase and methods and compositions for using same” (priority 2002, published 2011).
pIC50: −log10 of the molar value.

How the values were obtained:
solubilized γ-secretase [1] = target: T1, solubilized γ-secretase (Homo sapiens, UniProt P49768); assay: In vitro Notch cleavage ELISA (NusA-Notch fusion cleaved by solubilized γ-secretase, Val-1744/anti-FLAG sandwich); format: biochemical
T1 construct: γ-secretase activity from HeLa cells specifically cleaves the Notch protein; endogenous in cells; host or cells: HeLa cells (detergent-solubilized membrane fraction); substrate made in E. coli BL21 (DE3)
Procedure: In vitro Notch Cleavage ELISA. Notch cleavage was also assessed using an ELISA technique. Prior to setting up a reaction, the required number of wells in a 96-well half-area plate (Costar) were coated with 50 μl of Val-1744 antibody diluted 1:200 in 0.1 M NaHCO3, pH 8.2. Plates were incubated overnight at 4° C. The Notch cleavage reaction was set up as follows. NusA-Notch (0.9 μM) was incubated with 70 mg/ml of solubilized γ-secretase in 50 mM Pipes, pH 7.0, 0.25% CHAPSO in a total volume of 25 μl overnight at 37° C. The next day, the plate coated with Val-1744 antibody was washed 3 times with PBS/0.05% Tween-20 and blocked using 4% BSA in PBS/0.05% Tween-20 for 1 hour. […] The color was allowed to develop for 1 hour and 50 µl of 1M H3PO4 was added and the plates read at 450 nm on a SpectraMax Plus plate reader. […]
Inhibition of Notch Cleavage. […] IC50′s were calculated for inhibitors using the 4-parameter logistic model in the GraFit 4.0 program.
It is based on a sandwich ELISA using the highly specific anti-Val 1744 and anti Flag antibodies to capture the N- and C-terminus of the NICD fragment from the Notch fusion protein in the presence of γ-secretase. […] The chromogenic substrate for HRP, TMB reagent (Kirkegaard & Perry) is added and the color once developed is read at 450 nm on a SpectraMax Plus plate reader.

solubilized γ-secretase [2] = target: T1, solubilized γ-secretase; assay: Cleavage of Notch as determined by Western blot analysis; format: biochemical
Procedure: Cleavage of Notch as Determined by Western Blot Analysis. NusA-Notch fusion (1.7 μM) was incubated with 70 mg/ml solubilized γ-secretase in 50 mM Pipes, pH 7.0, 0.25% CHAPSO in a total volume of 50 μl overnight at 37° C. DAPT (PHA-568638) was added at varying concentrations. The reactions were stopped with the addition of 12.5 μl of 5× Laemmli buffer (Laemmli 1970) and 30 μl of the mixture was electrophoresed on a 15% SDS-PAGE. Proteins were transferred to nitrocellulose using a semi-dry blot apparatus (Millipore) and blocked for 2 hours using 4% BSA in PBS/0.5% Tween-20. […] The membrane was washed three times with PBS/0.5% Tween-20 followed by incubation with anti-rabbit IgG-HRP (1:5000 dil in 4% BSA in PBS/0.5% Tween-20). The membrane was again washed three times and developed using ECL reagents (Amersham, Piscataway, N.J.).

Row | Compound | pIC50 (solubilized γ-secretase [1]; NusA-Notch substrate, overnight 37° C., FIG. 9, read-out: IC50, inhibition of γ-secretase-mediated Notch cleavage) | inhibition of specific cleavage in Notch protein (1743/1744) (solubilized γ-secretase [2]; Western blot probed with Val-1744 antibody, varying concentrations, FIG. 5 lanes 4-8) | inhibition of cleavage products of Notch fusion protein (solubilized γ-secretase [2]; Western blot using the C-terminal Flag antibody, three immunoreactive bands) | Km (solubilized γ-secretase [1]; Michaelis-Menten fit, 0.11 to 3.6 μM substrate, FIG. 8A, read-out: apparent Km for hydrolysis of Notch fusion protein substrate by solubilized γ-secretase activity)
1 | C[C@H](NC(=O)Cc1cc(F)cc(F)c1)C(=O)N[C@H](C(=O)OC(C)(C)C)c1ccccc1 [DAPT] | 8.62 | inhibited in a dose-dependent manner | only one cleavage product was inhibitable | –
2 | Notch fusion protein substrate: soluble fusion of mouse Notch-1 amino acids 1703-1860 to C-terminus of NusA with C-terminal Flag and 8His tags (SEQ ID NO:2) | – | – | – | ~0.7 µM
